From patent US8980793B2, “Phytosanitary formulations” (Centre National de la Recherche Scientifique (CNRS), priority 2007, dated 2015)

Experiments:
[1] = Tests in darkness on wax films (penetration and volatilisation); format: physicochemical; settings: wax film
Description: The methodology for conducting the tests on thin films of cuticular wax comprises the following steps: • Preparation of the wax film: the wax which is used is the commercial carnauba wax. • Adding the pesticide. On the one hand, the active ingredient, sulcotrione, and on the other hand, the commercial formulation, Mikado®(alone or with the adding of at least one extract of at least one tinctorial plant, is deposited under the form of an aqueous solution on the surface of the leaves. The amount of active ingredient deposited by surface unit is equivalent to the amount used in agriculture. The studies are conducted after evaporation of the water. • Recovering of the pesticide. The films are rinsed with water and analysed by HPLC. It has been checked that the step of recovering is quantitative. • Tests in darkness. The concentration of the active ingredients on the surface of the leaves in darkness is controlled in order to measure the penetration rate of the active ingredient in the films and its volatilisation. […] Irradiation tests are conducted in a Suntest reactor simulating solar rays in temperate countries.

[2] = Photodegradation of sulcotrione on carnauba wax films irradiated in a Suntest reactor, HPLC analysis; format: physicochemical; settings: wax film, 6 hours irradiation
Description: The methodology for conducting the tests on thin films of cuticular wax comprises the following steps: • Preparation of the wax film: the wax which is used is the commercial carnauba wax. • Adding the pesticide. On the one hand, the active ingredient, sulcotrione, and on the other hand, the commercial formulation, Mikado®(alone or with the adding of at least one extract of at least one tinctorial plant, is deposited under the form of an aqueous solution on the surface of the leaves. The amount of active ingredient deposited by surface unit is equivalent to the amount used in agriculture. The studies are conducted after evaporation of the water. • Recovering of the pesticide. The films are rinsed with water and analysed by HPLC. It has been checked that the step of recovering is quantitative. • Tests in darkness. The concentration of the active ingredients on the surface of the leaves in darkness is controlled in order to measure the penetration rate of the active ingredient in the films and its volatilisation. […]
The photoprotective effects of the extracts according to the invention have been evaluated as follows The surface concentration of the active ingredient (sulcotrione) on the wax films is of 0.76 10^−5 g/cm^2, the active ingredient being used either pure or under the form of a commercial formulation. […]

[3] = Mikado spread on maize plants planted in a field, leaf surface checked by HPLC; settings: spread as Mikado
Description: For this aim, the commercial formulation, Mikado®, has been spread on maize plants planted in a field.
The amount of sulcotrione and the formation of a by-product of the phototransformation on the surface of the leaves have been checked by HPLC.

[4] = cited from earlier work

CS(=O)(=O)c1ccc(C(=O)C2C(=O)CCCC2=O)c(Cl)c1 [sulcotrione]
penetration of the active ingredient into the films [1]: penetrates slowly into the films
volatilisation of the active ingredient [1]: very little active ingredients volatilize
Weight percentage of remaining active ingredient after 6 hours of UV exposure [2]: 5-10%
detection of sulcotrione on the surface of the leaves ([3]; maize plants in a field, after 24 hours): no longer detected
sulcotrione transformed ([3]; surface of maize leaves in a field, after one hour): 25%
half-life in water [4]: about 80 days
